In patent US20240279684A1, “CYTOSOLIC DELIVERY OF GENOME EDITING TOOLS” (SAPREME TECHNOLOGIES B.V., priority 2021, published 2024):

System: GFP-expressing Neuro-2A-GFP-cells
Test: GFP-knockout via Cas9/gRNA(GFP) nanoplexes, FITC-H flow cytometry
Assay type: cell-based, murine
Conditions: for cells not considered fluorescent: GE1741-co-application
Procedure: FIG. 6A-E. GFP-Knockout of GFP-expressing Neuro-2A-GFP-cells via PDD (Cas9-DNA, gRNA (GFP)-DNA)-nanoplexes±saponin administration (co-transfection). GFP expressing Neuro-2A-cells were transfected via co-transfection of Cas9-DNA-plasmid and gRNA (GFP)-DNA-plasmid in a ratio of 4:0.5:0:5, with 500 ng of each DNA/well and 4.000 ng poly-lysine K16 peptide perwell. […] With saponin-Co-administration, the FITC-H was decreased by 10% (FIG. 6D) and the amount of cells not considered “fluorescent” compared to negative control, was increased by 7.5% (FIG. 6E).; n 3. FIG. 6A: FACS results with negative control; FIG. 6B: FACS results with PDD(Cas9-DNA, gRNA(GFP)-DNA), 4:1; FIG. 6C: FACS results of PDD(Cas9-DNA, gRNA(GFP)-DNA), 4:1+GE1741; FIG. 6D: values for the median FITC-H for the test samples of FIG. 6A-C and the control Lipofectamine3000DD(Cas9-DNA); FIG. 6E: amount of non-fluorescent cells in the test samples of FIGS. 6A-C and the control Lipofectamine3000DD(Cas9-DNA).
FIG. 7A-E. GFP-Knockout of GFP-expressing Neuro-2A-cells via PD (Cas9-gRNA (GFP)-DNA)-nanoplexes±saponin administration (All-in-one-transfection). GFP expressing Neuro-2A-cells were transfected via “All-in-one”-transfection of a Cas9-gRNA (GFP)-DNA-plasmid in a ratio of 4:1, 500 ng of each DNA/well. […] FIG. 7A: FACS results with negative control; FIG. 7B: FACS results with PD(Cas9-gRNA(GFP)-DNA, 4:1; FIG. 7C: FACS results of PD(Cas9-gRNA(GFP)-DNA, 4:1+GE1741; FIG. 7D: values for the median FITC-H for the test samples of FIG. 7A-C and for PD(Cas9-gRNA(GFP)-DNA, 8:1 and PD(Cas9-gRNA(GFP)-DNA, 8:1+GE1741; FIG. 7E: amount of non-fluorescent cells in the test samples of FIG. 7A-C and for PD(Cas9-gRNA(GFP)-DNA, 8:1 and PD(Cas9-gRNA(GFP)-DNA, 8:1+GE1741.
After the successful delivery of Cas9-DNA with GFP-driven fluorescence has been established, the inventors next tested the functionality of Cas9-transfections. GFP-expressing Neuro-2A-GFP-cells were therefore acquired. The aim of the test was to show and visualize the knock-out of the GFP-gene with a CRISPR-Cas9-gene knock-out. Therefore, Cas9-DNA (i.e. a plasmid DNA) was, either co-transfected with a gRNA-DNA-plasmid (PDD), or delivered in one plasmid DNA (“All-In-One-Plasmid”) coding for Cas9 and gRNA (PD) and expressing both Cas9 and guide RNA (FIG. 8, FIG. 9). The effect of GE1741-co-application during transfection of the cells was investigated via decrease of fluorescence intensity (FITC-H median & separation of the dot plot in FITC-H & FSC related quarters). […] To improve gene knock-out efficiency, a number of different gRNA-sequences was tested, in order to select the most efficient target sequence for the gRNA. The initially and further applied gRNA-sequences were obtained through a database with efficiency information. For selection of an optimal gRNA sequence, the GFP-gene sequence of the transfected cell line has to be known as many GFP-sequences are available. Further, the gene knock-out requires a sensitive assay, by which minimal changes can be detected. Within promotor-driven highly fluorescing cells, single gene knock-out possibly could not be identified.

## CC(=O)OC1C(C)OC(OC2C(C)OC(OC(=O)C34CCC(C)(C)CC3C3=CCC5C6(C)CCC(OC7OC(C(=O)O)C(O)C(OC8OCC(O)C(O)C8O)C7OC7OC(CO)C(O)C(O)C7O)C(C)(C=O)C6CCC5(C)C3(C)CC4O)C(OC3OC(C)C(OC4OCC(O)C(OC5OCC(O)C(O)C5O)C4O)C(O)C3O)C2O)C(O)C1OC(C)=O (stereo not shown) [GE1741]
  cells successfully transfected with Cas9-DNA: 30%
All-In-One-Plasmid (PD)
  cells not considered fluorescent: 11%
All-in-one PD (Cas9-gRNA(GFP)-DNA)
  FITC-H median change (in words): No FITC-H could be observed
All-in-one PD (Cas9-gRNA(GFP)-DNA), PD mass ratio 8:1
  amount of cells considered fluorescent, elevated by: 11%
co-transfection PDD (Cas9-DNA, gRNA(GFP)-DNA) 4:0.5:0.5, with saponin
  decrease of FITC-H median: 10%
co-transfection PDD (Cas9-DNA, gRNA(GFP)-DNA), with saponin
  increase of cells not considered fluorescent compared to negative control: 7.5%
co-transfection with gRNA-DNA-plasmid (PDD)
  cells not considered fluorescent: 10%
